From patent publication US10444230B2, “Method and system for determination of molecular interaction parameters” (GE Healthcare Bio-Sciences AB, priority 2003, dated 2019) come the findings set out here.

Molecules are shown by their SMILES.

For assay [1], the target named is T1, Carbonic anhydrase (Sigma C3640) (Bos taurus, UniProt P00921).
T1 construct: purchased Sigma C3640
The experiment in a line: SPR (BIACORE S51) sequential injection kinetics, inhibitors binding to immobilized carbonic anhydrase. As for the experimental part: Kinetic analysis was performed by injecting inhibitors in 10 mM PBS buffer with 0.005% P20 and 5% DMSO at a flow of 30 μl/min.
On the technique in general: SPR reads the build-up and loss of mass on a sensor chip optically.

For a further assay, the target named is Thrombin (Sigma T 1063) (Homo sapiens, UniProt P00734). To be noted: ligand densities approx. 2300 and 600 RU; 10 mM PBS, 0.005% P20, 5% DMSO, 3.4 mM EDTA.

T1 sequence (P00921 whole entry): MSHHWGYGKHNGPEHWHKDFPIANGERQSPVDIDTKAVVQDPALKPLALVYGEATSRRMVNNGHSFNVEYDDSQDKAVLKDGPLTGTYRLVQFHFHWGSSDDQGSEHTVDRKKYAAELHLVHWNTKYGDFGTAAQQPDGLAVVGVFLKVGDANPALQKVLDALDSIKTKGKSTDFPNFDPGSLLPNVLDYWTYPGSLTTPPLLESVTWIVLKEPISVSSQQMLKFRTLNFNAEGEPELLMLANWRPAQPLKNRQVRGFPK

With `NS(=O)(=O)c1ccccc1` [benzenesulfonamide], the kon in assay [1] (read-out: ka) is 160000 M⁻¹ s⁻¹. This compound registered a kd in assay [1] (two ligand densities, approx. 2000 and 700 RU, 10 mM PBS, 0.005% P20, 5% DMSO) of 0.14 s⁻¹.

For `N=C(N)c1ccc(CNC(=O)[C@@H]2CCN2C(=O)[C@H](NCC(=O)O)C2CCCCC2)cc1` [melagatran], at Thrombin (Sigma T 1063), the ka was found to be 2e+07 M⁻¹ s⁻¹ and the kd stood at 0.018 s⁻¹.
